Laboratory results taken from publication PMC9501810, “Bitter Peptides YFYPEL, [sequence], and [sequence], Released during Gastric Digestion of Casein, Stimulate Mechanisms of Gastric Acid Secretion via Bitter Taste Receptors TAS2R16 and TAS2R38” (Journal of Agricultural and Food Chemistry, 2022).

Tests used:
[1] = test system: TAS2R8; experiment: RT-qPCR gene expression of TAS2R8 in HGT-1 cells; type: cell-based, human; details: VAPFPEVF 17.5 µM, YFYPEL 0.03 µM, YQEPVLGPVRGPFPIIV 0.4 µM, normalized to PPIA and GAPDH and untreated cells, mean, n = 3–5
Protocol: (§1) For mRNA expression analysis, 800,000 cells were seeded in a T25 cell culture flask (25 cm^2) 1 day before the experiment. After incubation with 17.5 μM […], 0.03 μM YFYPEL, or 0.4 μM […] for 15, 30, 60, and 120 min, RNA was isolated using the peqGOLD RNA Kit (VWR Peqlab, USA) following the manufacturer’s protocol. Determination of RNA concentration (A260/A280 between 2.03 and 2.09) was performed on a NanoDrop One^c (Thermo Fisher Scientific Inc., USA). RNA integrity number (RIN 9.9–10.0, version 2.6, assay class Eukaryote Total RNA Nano) was analyzed using a 2100 Bioanalyzer (Agilent Technologies, USA). Removal of gDNA and synthesis of cDNA were performed using the iScript gDNA Clear cDNA Synthesis Kit (BioRad, Feldkirchen, Germany) following the manufacturer’s protocol. Real-time-qPCR (RT-qPCR) was performed with 50 ng cDNA amplified with SsoAdvanced Universal SYBR Green Supermix (Bio-Rad Laboratories, Inc., USA). The sequences of the forward and reverse primers of the 25 TAS2Rs were taken from Liszt et al.([13]) (Supporting Information Table-SI 3). Verified primers for the TAS1Rs (TAS1R1: qHsaCID0013443; TAS1R2: qHsaCID0016106; TAS1R3: qHsaCED0002321) and for MAPK1 (qHsaCEP0050000) were obtained from Bio-Rad Laboratories. PPIA[37] and GAPDH[38] were used as reference genes. The effects of the peptides on gene expression were analyzed in comparison to untreated control cells.

[2] = test system: TAS2R9; experiment: RT-qPCR gene expression of TAS2R9 in HGT-1 cells; type: cell-based, human; details: VAPFPEVF 17.5 µM, YFYPEL 0.03 µM, YQEPVLGPVRGPFPIIV 0.4 µM, normalized to PPIA and GAPDH and untreated cells, mean, n = 3–5
Protocol: as §1

[3] = test system: TAS2R60; experiment: RT-qPCR gene expression of TAS2R60 in HGT-1 cells; type: cell-based, human; details: incubation 15/30/60/120 min, VAPFPEVF 17.5 µM, YFYPEL 0.03 µM, YQEPVLGPVRGPFPIIV 0.4 µM, expression not detectable with or without treatment
Protocol: as §1

[4] = test system: MUC5AC; details: human intestinal cells; cited from earlier work
From the text: (§2) In addition, transport through Caco-2 cell monolayers was ...

[5] = test system: angiotensin-converting-enzyme; design: method as in PMID 8201050; details: cited from earlier work
From the text: as §2

[6] = cited from earlier work
From the text: as §2

[7] = test system: Caco-2 cell monolayers; details: cited from earlier work
From the text: as §2

[8] = design: method as in PMID 1427989; details: cited from earlier work
From the text: as §2

| Substance | change in gene expression of TAS2R8 ([1]; incubation 15 min) [fold change] | change in gene expression of TAS2R8 ([1]; incubation 30 min) [fold change] | change in gene expression of TAS2R8 ([1]; incubation 60 min) [fold change] | change in gene expression of TAS2R8 ([1]; incubation 120 min) [fold change] | change in gene expression of TAS2R9 ([2]; incubation 15 min) [fold change] | change in gene expression of TAS2R9 ([2]; incubation 30 min) [fold change] | change in gene expression of TAS2R9 ([2]; incubation 60 min) [fold change] | change in gene expression of TAS2R9 ([2]; incubation 120 min) [fold change] | change in gene expression of TAS2R60 [3] | effect on expression of MUC5AC [4] | angiotensin-converting-enzyme inhibitory activity [5] | antimicrobial ability [6] | transport through Caco-2 cell monolayers [7] | immunomodulatory ability [8] |
| --- | --- | --- | --- | --- | --- | --- | --- | --- | --- | --- | --- | --- | --- | --- |
| VAPFPEVF [bitter casein peptide αS1-CN25–32] | 1.24 | 2.25 | 1.34 | 2.04 | 1.73 | 1.08 | 2.31 | 0.99 | not detected | – | – | – | – | – |
| YFYPEL [bitter casein peptide αS1-CN144–149] | 1.62 | 1.90 | 1.87 | 1.69 | 0.66 | 2.64 | 3.01 | 1.41 | not detected | increase the expression of MUC5AC | – | – | – | – |
| YQEPVLGPVRGPFPIIV [bitter casein peptide βA1/A2-CN193–209] | 1.39 | 2.45 | 1.87 | 1.93 | 0.43 | 0.44 | 1.91 | 0.73 | not detected | – | angiotensin-converting-enzyme inhibitory activity | antimicrobial | transport through Caco-2 cell monolayers was observed | immunomodulatory abilities |
